# Experimental data taken from patent publication US5283353A, “Preparation of 1-amino-1-deoxyoligosaccharides and derivatives thereof” (Genzyme Corporation, priority 1990, dated 1994).
# Where two headings read alike, the source gives them in different places.
# Legend:
# [1] = Hydrolysis of 1-amino-1-deoxy-N-acetylglucosamine to 2-acetamido-2-deoxy-D-glucose in 50 mM phosphate p2H 7.0 buffer, followed by 1H NMR; type: physicochemical; settings: for Pseudo-first order rate constant for hydrolysis: calculated
# Procedure: To a solution of 1 mg of turkey ovomucoid glycopeptide (a heterogeneous mixture of three structurally related complex type oligosaccharides purified as described by E. M. Taga et al., Biochemistry, 23, 815-822 (1984)) in 50 mM phosphate, p^2 H 7.0 buffer in 99.96% ^2 H2 O equilibrated at the desired temperature was added the almond amidohydrolase enzyme to give a total volume of 0.5 ml. The reaction was followed by ^1 H NMR. The hydrolysis of 1-amino-1-deoxy-N-acetylglucosamine in 50 mM phosphate, p^2 H 7.0, buffer in 99.96% ^2 H2 O to 2-acetamido-2-deoxy-D-glucose was followed by ^1 H NMR as a reference compound. The proton peaks of interest were integrated and the pseudo first-order rate constant was calculated from the slope of a plot of the natural logarithm of the peak area as a function of time.
# The rate of hydrolysis for the model compound was readily measured using ^1 H NMR. Upon hydrolysis, the ^1 H NMR signal for the anomeric proton of the model compound shifts downfield from 4.189 ppm (J1,2 =9.35 Hz) to 5.195 ppm (J1,2 =3.38 Hz) and 4.709 ppm (J1,2 =3.38 Hz), the former the alpha-anomer and the latter the beta-anomer of the product, N-acetylglucosamine, while the chemical shift of the N-acetyl group is unchanged. The pseudo-first order rate constants for the enzyme-catalyzed reaction and for the hydrolysis of the model compound are given in Table I; based on least squares standard error analysis, the precision in the pseudo-first order rate constant is ±5%. These limited data give energies of activation for the enzyme-catalyzed reaction of 9.5 kcal […] and for the model compound of 17.7 kcal mol^1.
# [2] = cited from earlier work
smiles,measurement,setting,value
"CC(=O)N[C@@H]1[C@@H](O)[C@H](O)[C@@H](CO)O[C@H]1N [1-Amino-N-acetylglucosamine, 1-amino-1-deoxy-N-acetylglucosamine]",Pseudo-first order rate constant for hydrolysis,"[1]; p2H 7.0, 24 °C",1.08 10^3 × k (min^-1)
same,Pseudo-first order rate constant for hydrolysis,"[1]; p2H 7.0, 39 °C",4.56 10^3 × k (min^-1)
same,Energy of activation for hydrolysis of the model compound,"[1]; p2H 7.0, from rate constants of Table I",17.7 kcal mol^1
same,Pseudo-first order rate constant for hydrolysis,"[2]; p2H 7.0, 22 °C",0.88 10^3 × k (min^-1)
same,Pseudo-first order rate constant for hydrolysis,"[2]; p2H 7.0, 37 °C",3.81 10^3 × k (min^-1)
